From article doi:10.1101/2020.07.12.199869v2 (bioRxiv, 2020)

Test system: PGP/syndapin-2
Test: Proximity ligation assay PGP/syndapin-2 in BECs
Assay type: cell-based, mouse
Details: polarised BECs, FAM-Aβ (1-40) 500 nM, 15 minutes; n = 60 images

## 5-Fluorescein-amyloid-β protein (Aβ 1-40) [FAM-Aβ (1-40)]
  change in interaction of syndapin-2 with PGP (PLA dots): no significant difference
